For test [1], the system named is spontaneously hypertensive rats (SHR). Briefly: Antihypertensive action by telemetry method. The format is in vivo, rat. Conditions: oral once a day for 4 days, 24 hr averages. The text has this:
A telemetry transmitter was indwelled in the abdominal artery of spontaneously hypertensive rats (SHR), and the blood pressure and heart rate were monitored. The rats were acclimated and reared for 4 weeks or more, and only the rats with hypertension were used for the test. Before drug administration, the rats were grouped such that the blood pressure and heart rate of each rat would be of the same levels between the groups. A solvent (0.5% methylcellulose solution) and a test compound were repeatedly administered orally once a day for 4 days. The average systolic blood pressure for 24 hr, average diastolic blood pressure for 24 hr and average heart rate for 24 hr were calculated on each administration day.

The target of test [2] is T1, GAL4-PPARγ chimeric nuclear receptor (human PPARγ ligand binding region) (Homo sapiens, UniProt P37231).
T1 construct: expressed in transfected cells; host or cells: HEK293EBNA cells
T1 sequence (P37231 174-475 isoform P37231-2): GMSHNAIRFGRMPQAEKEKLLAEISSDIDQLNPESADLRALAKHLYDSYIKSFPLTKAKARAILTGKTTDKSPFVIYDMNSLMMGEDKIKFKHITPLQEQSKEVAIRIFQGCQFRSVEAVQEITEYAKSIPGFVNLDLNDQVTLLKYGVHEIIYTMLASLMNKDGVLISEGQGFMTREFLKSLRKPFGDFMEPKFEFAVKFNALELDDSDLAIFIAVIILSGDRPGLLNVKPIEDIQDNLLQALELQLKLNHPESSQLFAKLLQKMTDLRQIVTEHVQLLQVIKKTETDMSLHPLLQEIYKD
Briefly: Transactivation assay of PPARγ by transient gene transfer (GAL4-PPARγ luciferase reporter). As to conditions: HEK293EBNA cells, 24 hr; concentration showing 50% of efficacy; activity relative to pioglitazone 10 μmol/L = 100%. The format is cell-based. The method, then: The agonist activity of compound (I) to PPARγ was determined by a transactivation assay method using a chimeric nuclear receptor of a DNA binding region of a yeast transcription factor GAL4 and a PPARγ ligand binding region. Specifically, the PPARγ agonist activity of compound (I) was evaluated by the following method based on the method of Lehmann et al. (J Biol. Chem., 1995, vol. 270, page 12953).
HEK293EBNA cells cultured in Dulbecco's Modified Eagle medium (Invitrogen) containing 10 v/v % fetal calf serum (Invitrogen) were used. 30 mL of the above-mentioned cells (density: 1×10^5 cells/mL) were inoculated in a […] culture dish (Iwaki Glass), and cultured overnight. Using SuperFect Transfection Reagent (QIAGEN), a plasmid expressing a GAL4-PPARγ chimeric nuclear receptor fusing 174-475 amino acids, which are human PPARγ ligand binding region, and 1-147 amino acids, which are GAL4 DNA binding region, and a reporter plasmid expressing a GAL4 responsive luciferase were transiently introduced into the cells at a proportion of 4:1. After 5 hr from gene introduction, the cells were detached from the culture dish, and the detached cells (density: 2×10^4 cells/mL) were inoculated by 100 μL in each well of a 96 well white plate (SUMITOMO BAKELITE), and cultured overnight. The medium was removed, compound (I) diluted in various concentrations with serum-free Dulbecco's Modified Eagle medium was added by 100 μL, and the mixture was reacted under a 5% carbon dioxide gas stream (5% CO2) at 37° C. for 24 hr. On the other hand, as a positive control, 10 μmol/L of pioglitazone (100 μL) was added, and the mixture was reacted under a 5% carbon dioxide gas stream (5% CO2) at 37° C. for 24 hr. As a substrate of luciferase, 100 μL of Steady-Glo (Promega) was added to each well and the mixture was thoroughly stirred. Immediately thereafter, the chemical luminescence due to luciferase was measured using TopCount NTX (Packard).
The agonist activity (activity rate (%)) of compound (I) to PPARγ was calculated according to the following formula, as a relative activity when the agonist activity on addition of pioglitazone (10 μmol/L) was 100%.
For orientation: A reporter such as luciferase makes a cellular process visible.

18 molecules from patent US8242151B2, “Tricyclic compounds” (Kyowa Hakko Kirin Co., Ltd., priority 2007, dated 2012) can be followed below.

Turning to `C/C(=C1\c2ccc(Cn3c(C4CC4)nc4c(Cl)cccc43)cc2COc2ccccc21)c1noc(=O)[nH]1` [Compound 147, (Z)-8-(4-chloro-2-cyclopropylbenzimidazol-1-yl)methyl-11-[1-(5-oxo-4,5-dihydro-1,2,4-oxadiazol-3-yl)ethylidene]-6,11-dihydrodibenzo[b,e]oxepine], in test [1], the “antihypertensive action (blood pressure, telemetry)” value is given as “antihypertensive action”. The midpoint of the response in test [2], the EC50, lay at 226 nM.

`CCOc1nc2c(Cl)cccc2n1Cc1ccc2c(c1)COc1ccccc1/C2=C(/C)c1noc(=O)[nH]1` [Compound 146, (Z)-8-(4-chloro-2-ethoxybenzimidazol-1-yl)methyl-11-[1-(5-oxo-4,5-dihydro-1,2,4-oxadiazol-3-yl)ethylidene]-6,11-dihydrodibenzo[b,e]oxepine]: the “antihypertensive action (blood pressure, telemetry)” value in test [1] is given as “antihypertensive action”. In addition, in test [2], the EC50 came out at 336 nM.

As for `CCc1nc2c(C)cc(C)nc2n1Cc1ccc2c(c1)CCc1ccccc1/C2=C\c1nnn[nH]1` [Compound S16, (E)-2-(2-ethyl-5,7-dimethyl-3H-imidazo[4,5-b]pyridin-3-yl)methyl-5-(1H-tetrazol-5-yl)methylene-10,11-dihydro-5H-dibenzo[a,d]cycloheptene], in test [1], the “antihypertensive action (blood pressure, telemetry)” value is “antihypertensive action”. Moreover, it took 305 nM to reach a half-maximal effect in test [2] (EC50). Consider `CCOc1nc2c(C)cc(C)nc2n1Cc1ccc2c(c1)COc1ccccc1/C2=C\c1noc(=O)[nH]1` [Compound 124, (Z)-8-(2-ethoxy-5,7-dimethyl-3H-imidazo[4,5-b]pyridin-3-yl)methyl-11-(5-oxo-4,5-dihydro-1,2,4-oxadiazol-3-yl)methylene-6,11-dihydrodibenzo[b,e]oxepine], for which the “antihypertensive action (blood pressure, telemetry)” value in test [1] was “antihypertensive action”. Moreover, in test [2], the EC50 is 320 nM. In the same order, the values of `CCc1nc2c(C)cc(C)nc2n1Cc1ccc2c(c1)CCc1ccccc1/C2=C(/C)c1nnn[nH]1` [Compound 45, (E)-2-(2-ethyl-5,7-dimethyl-3H-imidazo[4,5-b]pyridin-3-yl)methyl-5-[1-(1H-tetrazol-5-yl)ethylidene]-10,11-dihydro-5H-dibenzo[a,d]cycloheptene] are “antihypertensive action” and 1090 nM.

For `CCOc1nc2c(C)cc(C)nc2n1Cc1ccc2c(c1)CCc1ccccc1/C2=C(/C)c1noc(=O)[nH]1` [Compound 86, (E)-2-(2-ethoxy-5,7-dimethyl-3H-imidazo[4,5-b]pyridin-3-yl)methyl-5-[1-(5-oxo-4,5-dihydro-1,2,4-oxadiazol-3-yl)ethylidene]-10,11-dihydro-5H-dibenzo[a,d]cycloheptene], the “antihypertensive action (blood pressure, telemetry)” value in test [1] was “antihypertensive action”. The molecule further registered an EC50 in test [2] of 323 nM. For `CCc1nc2c(Cl)cc(C)nc2n1Cc1ccc2c(c1)CCc1ccccc1N2C(C)c1nnn[nH]1` (stereo not drawn) [Compound 25, 2-(7-chloro-2-ethyl-5-methyl-3H-imidazo[4,5-b]pyridin-3-yl)methyl-5-[1-(1H-tetrazol-5-yl)ethyl]-10,11-dihydro-5H-dibenzo[b,f]azepine], the “antihypertensive action (blood pressure, telemetry)” value in test [1] is given as “antihypertensive action”. Besides, in test [2], the half-maximal effective concentration (EC50) came out at 233 nM. In the same order, the values of `C/C(=C1/c2ccccc2CCc2cc(Cn3c(C4CC4)nc4c(C)ccnc43)ccc21)c1nnn[nH]1` [Compound 100, (E)-2-(2-cyclopropyl-7-methyl-3H-imidazo[4,5-b]pyridin-3-yl)methyl-5-[1-(1H-tetrazol-5-yl)ethylidene]-10,11-dihydro-5H-dibenzo[a,d]cycloheptene] are “antihypertensive action” and 1020 nM. With `CCCc1nc2c(C)cccc2n1Cc1ccc2c(c1)CCc1ccccc1/C2=C/c1noc(=O)[nH]1` [Compound 51, (Z)-2-(4-methyl-2-propylbenzimidazol-1-yl)methyl-5-(5-oxo-4,5-dihydro-1,2,4-oxadiazol-3-yl)methylene-10,11-dihydro-5H-dibenzo[a,d]cycloheptene], in test [2], the midpoint of the response, the EC50, lay at 94 nM. The same measure, in the same setting: the same measure for `CCCc1nc2c(C(F)(F)F)cc(C)nc2n1Cc1ccc2c(c1)CCc1ccccc1/C2=C/c1noc(=O)[nH]1` [Compound 57, (Z)-2-(5-methyl-2-propyl-7-trifluoromethyl-3H-imidazo[4,5-b]pyridin-3-yl)methyl-5-(5-oxo-4,5-dihydro-1,2,4-oxadiazol-3-yl)methylene-10,11-dihydro-5H-dibenzo[a,d]cycloheptene]: 440 nM.

Consider `CCc1nc2c(C)cc(C)nc2n1Cc1ccc2c(c1)CCc1ccccc1C2=CC#N` [Compound S15, [2-(2-ethyl-5,7-dimethyl-3H-imidazo[4,5-b]pyridin-3-yl)methyl-10,11-dihydro-5H-dibenzo[a,d]cyclohepten-5-ylidene]acetonitrile], for which the “antihypertensive action (blood pressure, telemetry)” value in test [1] is listed as “antihypertensive action”. Also, in test [2], the response was half-maximal at 1250 nM (EC50).

In turn, `CCCc1nc2c(C)cccc2n1Cc1ccc2c(c1)CCc1ccccc1C2Cc1noc(=O)[nH]1` (stereo not drawn) [Compound 64, 2-(4-methyl-2-propylbenzimidazol-1-yl)methyl-5-(5-oxo-4,5-dihydro-1,2,4-oxadiazol-3-yl)methyl-10,11-dihydro-5H-dibenzo[a,d]cycloheptene] had an EC50 in test [2] of 73 nM. Turning to `CCc1nc2c(C)cc(C)nc2n1Cc1ccc2c(c1)CCc1ccccc1N2C(C)c1nnn[nH]1` (stereo not drawn) [Compound 22, 2-(2-ethyl-5,7-dimethyl-3H-imidazo[4,5-b]pyridin-3-yl)methyl-5-[1-(1H-tetrazol-5-yl)ethyl]-10,11-dihydro-5H-dibenzo[b,f]azepine], in test [1], the “antihypertensive action (blood pressure, telemetry)” value is “antihypertensive action”. Further, in test [2], the response was half-maximal at 1000 nM (EC50).

On to `CCc1nc2c(Cl)cc(C)nc2n1Cc1ccc2c(c1)COc1ccccc1/C2=C(/C)c1noc(=O)[nH]1` [Compound 129, (Z)-8-(7-chloro-2-ethyl-5-methyl-3H-imidazo[4,5-b]pyridin-3-yl)methyl-11-[1-(5-oxo-4,5-dihydro-1,2,4-oxadiazol-3-yl)ethylidene]-6,11-dihydrodibenzo[b,e]oxepine], for which, in test [1], the “antihypertensive action (blood pressure, telemetry)” value is given as “antihypertensive action”. In addition, it took 611 nM to reach a half-maximal effect in test [2] (EC50).

`CCc1nc2c(C)cc(C)nc2n1Cc1ccc2c(c1)CCc1ccccc1/C2=C/c1nnn[nH]1` [Compound S17, (Z)-2-(2-ethyl-5,7-dimethyl-3H-imidazo[4,5-b]pyridin-3-yl)methyl-5-(1H-tetrazol-5-yl)methylene-10,11-dihydro-5H-dibenzo[a,d]cycloheptene] yielded an EC50 in test [2] of 1290 nM. On the same count and under the same terms, the same measure for `Cc1cc(C)c2nc(C3CC3)n(Cc3ccc4c(c3)CCc3ccccc3N4Cc3nnn[nH]3)c2n1` [Compound S14, 2-(2-cyclopropyl-5,7-dimethyl-3H-imidazo[4,5-b]pyridin-3-yl)methyl-5-(1H-tetrazol-5-yl)methyl-10,11-dihydro-5H-dibenzo[b,f]azepine]: 4130 nM; for `CCCc1nc2c(C)cccc2n1Cc1ccc2c(c1)CCc1ccccc1N2C(C)c1noc(=O)[nH]1` (stereo not drawn) [Compound 18, 2-(4-methyl-2-propylbenzimidazol-1-yl)methyl-5-[1-(5-oxo-4,5-dihydro-1,2,4-oxadiazol-3-yl)ethyl]-10,11-dihydro-5H-dibenzo[b,f]azepine]: 48 nM. Turning to `Cc1cc(C)c2nc(C3CC3)n(Cc3ccc4c(c3)CCc3ccccc3N4C(C)c3nnn[nH]3)c2n1` (stereo not drawn) [Compound 71, 2-(2-cyclopropyl-5,7-dimethyl-3H-imidazo[4,5-b]pyridin-3-yl)methyl-5-[1-(1H-tetrazol-5-yl)ethyl]-10,11-dihydro-5H-dibenzo[b,f]azepine], in test [1], the “antihypertensive action (blood pressure, telemetry)” value is on record as “antihypertensive action”. In test [2], this molecule came in with a concentration for a half-maximal effect (EC50) of 235 nM.

A word on the EC50: it is the concentration giving half of the maximal effect. Higher therefore signals a less potent agent.
